Structures are written as SMILES. The source made the active and inactive calls. The calls are words filed in the database; no cut-off is given here.

The text below walks through data of ChEMBL document CHEMBL5634117 (Eur J Med Chem, 2023).

Assay [1] concerns the target T1, Mitogen-activated protein kinase 8 (Homo sapiens, UniProt P45983). Put plainly: Inhibition of human JNK1 at 10 uM in presence of ATP relative to control.
Assay [2] has as its target T2, Mitogen-activated protein kinase 9 (Homo sapiens, UniProt P45984). Put plainly: Inhibition of human JNK2 at 10 uM in presence of ATP relative to control.
Target sequence in this assay (P45984 whole entry, looked up): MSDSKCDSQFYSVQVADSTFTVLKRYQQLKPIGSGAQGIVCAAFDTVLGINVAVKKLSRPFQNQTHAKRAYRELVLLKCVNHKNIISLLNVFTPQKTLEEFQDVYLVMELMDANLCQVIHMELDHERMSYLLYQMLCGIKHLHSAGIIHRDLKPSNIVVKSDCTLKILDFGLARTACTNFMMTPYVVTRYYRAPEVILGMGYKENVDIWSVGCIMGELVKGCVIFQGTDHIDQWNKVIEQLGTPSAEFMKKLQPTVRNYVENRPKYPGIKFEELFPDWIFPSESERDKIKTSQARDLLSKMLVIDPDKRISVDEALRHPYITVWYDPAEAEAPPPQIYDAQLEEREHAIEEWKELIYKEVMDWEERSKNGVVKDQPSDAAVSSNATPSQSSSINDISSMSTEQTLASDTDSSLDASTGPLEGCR
Assay [3] concerns the target T3, Mitogen-activated protein kinase 10 (Homo sapiens, UniProt P53779). Put plainly: Inhibition of human JNK3 at 10 uM in presence of ATP relative to control.
Assay [4] deals with T1, Mitogen-activated protein kinase 8. Put plainly: Inhibition of human JNK1 in presence of ATP.
Assay [5] concerns the target T2, Mitogen-activated protein kinase 9. Put plainly: Inhibition of human JNK2 in presence of ATP.
Target sequence in this assay (P45984 whole entry): as the sequence (P45984 whole entry, looked up) above
Assay [6] deals with T3, Mitogen-activated protein kinase 10. Put plainly: Inhibition of human JNK3 in presence of ATP.
The subject of assay [7] is K562. Put plainly: Induction of cell cycle arrest in human K562 cells assessed as accumulation of cells at G2/M phase at 1.25 uM measured after 24 hrs by PI staining based flow cytometry analysis (reference value: 25.62%). The assay is classed as functional. For orientation: A flow cytometer gives signals particle by particle.
Assay [8] relates to K562. Put plainly: Induction of cell cycle arrest in human K562 cells assessed as accumulation of cells at G2/M phase at 2.5 uM measured after 24 hrs by PI staining based flow cytometry analysis (reference value: 25.62%). The assay is classed as functional.
Assay [9] concerns K562. Put plainly: Induction of cell cycle arrest in human K562 cells assessed as accumulation of cells at G2/M phase at 5 uM measured after 24 hrs by PI staining based flow cytometry analysis (reference value: 25.62%). Format: functional.
Assay [10] concerns K562. Put plainly: Induction of cell cycle arrest in human K562 cells assessed as accumulation of cells at S phase at 1.25 uM measured after 24 hrs by PI staining based flow cytometry analysis (reference value: 24.75%). The assay is classed as functional.
For assay [11], the system named is K562. Put plainly: Induction of cell cycle arrest in human K562 cells assessed as accumulation of cells at S phase at 2.5 uM measured after 24 hrs by PI staining based flow cytometry analysis (reference value: 24.75%). Format: functional.
The subject of assay [12] is K562. Put plainly: Induction of cell cycle arrest in human K562 cells assessed as accumulation of cells at S phase at 5 uM measured after 24 hrs by PI staining based flow cytometry analysis (reference value: 24.75%). The assay is classed as functional.
Assay [13] relates to K562. Put plainly: Induction of cell cycle arrest in human K562 cells assessed as accumulation of cells at G0/G1 phase at 1.25 uM measured after 24 hrs by PI staining based flow cytometry analysis (reference value: 46.72%). The assay is classed as functional.
Assay [14] concerns K562. Put plainly: Induction of cell cycle arrest in human K562 cells assessed as accumulation of cells at G0/G1 phase at 2.5 uM measured after 24 hrs by PI staining based flow cytometry analysis (reference value: 46.72%). The assay is classed as functional.
The test system of assay [15] is K562. Put plainly: Induction of cell cycle arrest in human K562 cells assessed as accumulation of cells at G0/G1 phase at 5 uM measured after 24 hrs by PI staining based flow cytometry analysis (reference value: 46.72%). The assay is classed as functional.
Assay [16] deals with K562. Put plainly: Induction of cell cycle arrest in human K562 cells assessed as accumulation of cells at SubG1 phase at 1.25 uM measured after 24 hrs by PI staining based flow cytometry analysis (reference value: 2.21%). Format: functional.
Assay [17] concerns K562. Put plainly: Induction of cell cycle arrest in human K562 cells assessed as accumulation of cells at SubG1 phase at 2.5 uM measured after 24 hrs by PI staining based flow cytometry analysis (reference value: 2.21%). Format: functional.
The test system of assay [18] is K562. Put plainly: Induction of cell cycle arrest in human K562 cells assessed as accumulation of cells at SubG1 phase at 5 uM measured after 24 hrs by PI staining based flow cytometry analysis (reference value: 2.21%). The assay is classed as functional.
In assay [19] the test system is K562. Put plainly: Induction of apoptosis in human K562 cells assessed as early apoptotic cells at 1.25 uM incubated for 24 hrs by annexinV and propidium iodide staining based flow cytometry analysis (reference value: 1.17%). Format: functional.
The subject of assay [20] is K562. Put plainly: Induction of apoptosis in human K562 cells assessed as early apoptotic cells at 2.5 uM incubated for 24 hrs by annexinV and propidium iodide staining based flow cytometry analysis (reference value: 1.17%). The assay is classed as functional.
Assay [21] deals with K562. Put plainly: Induction of apoptosis in human K562 cells assessed as early apoptotic cells at 5 uM incubated for 24 hrs by annexinV and propidium iodide staining based flow cytometry analysis (reference value: 1.17%). The assay is classed as functional.
Assay [22] relates to K562. Put plainly: Induction of apoptosis in human K562 cells assessed as late apoptotic cells at 1.25 uM incubated for 24 hrs by annexinV and propidium iodide staining based flow cytometry analysis (reference value: 0.82%). The assay is classed as functional.
The test system of assay [23] is K562. Put plainly: Induction of apoptosis in human K562 cells assessed as late apoptotic cells at 2.5 uM incubated for 24 hrs by annexinV and propidium iodide staining based flow cytometry analysis (reference value: 0.82%). Format: functional.
Assay [24] has as its system K562. Put plainly: Induction of apoptosis in human K562 cells assessed as late apoptotic cells at 5 uM incubated for 24 hrs by annexinV and propidium iodide staining based flow cytometry analysis (reference value: 0.82%). Format: functional.
Assay [25] concerns K562. Put plainly: Induction of autophagy in human K562 cells assessed as increase in beclin-1 level at 2.5 to 5 uM measured after 24 hrs by Western blotting analysis. The assay is classed as functional, cell-based. The following applies: dose 2.5-5 µM. (In general: Immunoblotting shows a protein as a band on a membrane.)
In assay [26] the target is T1, Mitogen-activated protein kinase 8. Put plainly: Inhibition of JNK1 (unknown origin) expressed in HEK293 cells assessed as target engagement incubated for 1 hr by NanoBRET assay. Format: cell-based. In general terms: In BRET a luciferase serves as donor, and the signal depends on an acceptor being close.
The target of assay [27] is Cytochrome P450 2D6 (Homo sapiens, UniProt P10635). Put plainly: Inhibition of CYP2D6 (unknown origin) using vivid EOMCC as substrate. The assay is classed as ADME.
For assay [28], the target named is Cytochrome P450 3A4 (Homo sapiens, UniProt P08684). Put plainly: Inhibition of CYP3A4 (unknown origin) using vivid BOMCC as substrate. Format: ADME.
Assay [29] addresses Voltage-gated inwardly rectifying potassium channel KCNH2 (Homo sapiens, UniProt Q12809). Put plainly: Inhibition of human ERG. Format: toxicity.

T1 sequence (P45983 whole entry): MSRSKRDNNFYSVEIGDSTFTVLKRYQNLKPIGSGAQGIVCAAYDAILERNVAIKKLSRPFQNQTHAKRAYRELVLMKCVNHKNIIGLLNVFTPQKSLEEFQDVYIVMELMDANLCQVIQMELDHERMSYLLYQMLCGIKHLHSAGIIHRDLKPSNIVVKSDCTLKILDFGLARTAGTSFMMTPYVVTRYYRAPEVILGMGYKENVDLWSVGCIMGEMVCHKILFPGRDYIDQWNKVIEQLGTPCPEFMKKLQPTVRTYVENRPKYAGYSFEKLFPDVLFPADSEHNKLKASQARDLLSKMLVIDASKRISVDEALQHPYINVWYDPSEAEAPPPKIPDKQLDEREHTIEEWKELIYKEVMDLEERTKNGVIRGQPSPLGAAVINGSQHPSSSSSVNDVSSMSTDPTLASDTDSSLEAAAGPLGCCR
T3 sequence (P53779 whole entry): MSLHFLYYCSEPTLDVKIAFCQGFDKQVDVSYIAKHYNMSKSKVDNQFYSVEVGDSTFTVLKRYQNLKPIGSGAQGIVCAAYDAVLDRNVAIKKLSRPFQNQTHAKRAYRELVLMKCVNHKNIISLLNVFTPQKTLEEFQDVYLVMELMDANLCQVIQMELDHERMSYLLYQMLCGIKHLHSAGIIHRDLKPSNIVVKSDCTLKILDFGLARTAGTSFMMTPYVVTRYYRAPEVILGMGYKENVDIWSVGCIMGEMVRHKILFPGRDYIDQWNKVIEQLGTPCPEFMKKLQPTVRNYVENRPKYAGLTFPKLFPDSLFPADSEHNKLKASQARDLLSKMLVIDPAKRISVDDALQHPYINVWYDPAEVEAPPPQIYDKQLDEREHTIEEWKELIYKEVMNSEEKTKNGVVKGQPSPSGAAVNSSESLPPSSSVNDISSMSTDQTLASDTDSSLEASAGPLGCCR
Sequence of Voltage-gated inwardly rectifying potassium channel KCNH2 (Q12809 whole entry): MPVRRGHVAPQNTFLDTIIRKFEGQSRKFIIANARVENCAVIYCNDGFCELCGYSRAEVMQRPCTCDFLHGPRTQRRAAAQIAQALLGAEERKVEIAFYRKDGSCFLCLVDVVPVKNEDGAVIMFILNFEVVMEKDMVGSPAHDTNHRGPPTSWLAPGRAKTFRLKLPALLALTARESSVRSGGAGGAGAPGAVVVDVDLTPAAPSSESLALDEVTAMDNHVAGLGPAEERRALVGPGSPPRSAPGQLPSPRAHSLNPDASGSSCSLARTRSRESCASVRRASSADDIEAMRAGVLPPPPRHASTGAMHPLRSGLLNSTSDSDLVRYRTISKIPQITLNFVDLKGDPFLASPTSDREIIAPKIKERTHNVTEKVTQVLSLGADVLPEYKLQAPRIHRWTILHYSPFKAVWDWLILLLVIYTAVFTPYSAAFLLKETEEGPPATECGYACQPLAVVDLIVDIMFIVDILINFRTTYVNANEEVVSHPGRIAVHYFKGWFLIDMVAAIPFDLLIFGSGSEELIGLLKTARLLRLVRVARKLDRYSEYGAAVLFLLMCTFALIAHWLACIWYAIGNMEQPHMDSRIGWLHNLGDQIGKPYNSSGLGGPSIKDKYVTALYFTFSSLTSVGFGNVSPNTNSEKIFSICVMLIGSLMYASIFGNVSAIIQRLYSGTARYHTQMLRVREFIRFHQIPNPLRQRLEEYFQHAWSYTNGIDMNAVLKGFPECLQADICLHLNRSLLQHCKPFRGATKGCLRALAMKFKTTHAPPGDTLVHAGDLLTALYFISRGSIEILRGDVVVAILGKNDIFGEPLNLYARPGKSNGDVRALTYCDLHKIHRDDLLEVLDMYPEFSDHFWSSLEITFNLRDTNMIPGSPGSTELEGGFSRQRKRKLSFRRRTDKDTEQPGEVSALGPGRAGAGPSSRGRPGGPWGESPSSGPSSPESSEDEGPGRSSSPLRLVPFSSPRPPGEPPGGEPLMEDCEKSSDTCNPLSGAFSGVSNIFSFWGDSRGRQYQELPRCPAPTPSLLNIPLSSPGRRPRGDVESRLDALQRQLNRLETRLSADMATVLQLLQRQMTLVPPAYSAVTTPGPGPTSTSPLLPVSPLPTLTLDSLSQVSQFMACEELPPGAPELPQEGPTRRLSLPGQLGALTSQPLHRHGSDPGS
Sequence of Cytochrome P450 3A4 (P08684 whole entry): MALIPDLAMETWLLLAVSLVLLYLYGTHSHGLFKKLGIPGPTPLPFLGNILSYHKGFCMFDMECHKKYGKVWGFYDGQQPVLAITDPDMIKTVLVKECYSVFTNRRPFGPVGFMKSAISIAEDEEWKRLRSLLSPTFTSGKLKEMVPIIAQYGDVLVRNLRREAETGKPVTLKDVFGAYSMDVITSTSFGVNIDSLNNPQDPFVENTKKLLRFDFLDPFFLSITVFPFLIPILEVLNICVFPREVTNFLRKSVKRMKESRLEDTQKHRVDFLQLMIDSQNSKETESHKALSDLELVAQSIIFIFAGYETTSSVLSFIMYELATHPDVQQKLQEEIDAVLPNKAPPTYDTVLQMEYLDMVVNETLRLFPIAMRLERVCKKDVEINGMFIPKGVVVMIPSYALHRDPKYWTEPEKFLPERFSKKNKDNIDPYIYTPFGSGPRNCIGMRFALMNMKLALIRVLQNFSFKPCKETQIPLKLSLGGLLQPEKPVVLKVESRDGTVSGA
Sequence of Cytochrome P450 2D6 (P10635 whole entry): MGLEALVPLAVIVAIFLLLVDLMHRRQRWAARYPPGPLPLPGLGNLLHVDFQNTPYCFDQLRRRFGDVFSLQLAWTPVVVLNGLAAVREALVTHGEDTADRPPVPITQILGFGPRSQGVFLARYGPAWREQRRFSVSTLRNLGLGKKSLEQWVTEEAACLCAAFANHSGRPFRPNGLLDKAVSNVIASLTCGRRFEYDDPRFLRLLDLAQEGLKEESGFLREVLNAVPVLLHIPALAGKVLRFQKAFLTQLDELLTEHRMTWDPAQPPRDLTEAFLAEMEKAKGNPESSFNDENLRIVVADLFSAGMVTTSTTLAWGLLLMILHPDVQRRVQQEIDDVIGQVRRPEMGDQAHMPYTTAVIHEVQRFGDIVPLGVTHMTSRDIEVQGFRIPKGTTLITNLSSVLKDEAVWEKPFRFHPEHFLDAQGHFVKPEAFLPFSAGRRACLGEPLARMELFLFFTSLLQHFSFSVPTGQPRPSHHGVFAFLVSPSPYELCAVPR

What is called inhibition is the change of the read-out against control, counted positive when it falls. `Cc1ccc(S(=O)(=O)NCCNc2cc(-c3cn(C(C)(C)C)nc3-c3cccc(O)c3)ccn2)cc1`: in assay [1], the inhibition was found to be 85.8%.

With `CC(C)(C)n1cc(-c2ccnc(NCCNS(=O)(=O)c3ccc(Br)cc3)c2)c(-c2cccc(O)c2)n1`, in assay [1], the inhibition worked out at 74%.

In general, IC50 refers to the concentration that inhibits the measured activity by half. Regarding `CC(C)(C)n1cc(-c2ccnc(NCCCNS(=O)(=O)c3ccc(F)cc3)c2)c(-c2cccc(O)c2)n1`, the inhibition came out at 96.8% in [1], 98.9% in [2] and 98.5% in assay [3]. Further, the values for the half-maximal inhibitory concentration (IC50) in assay [4], in [5] and in [6] were 3.5 nM, 19.8 nM and 10.1 nM, respectively.

As for `COc1ccc(S(=O)(=O)NCCNc2cc(-c3cn(C(C)(C)C)nc3-c3cccc(OC)c3)ccn2)cc1`, in [1], the inhibition was 9.82%.

Regarding `COc1ccc(S(=O)(=O)NCCCNc2cc(-c3cn(C(C)(C)C)nc3-c3cccc(O)c3)ccn2)cc1`, the values for the inhibition in [1], in [2] and in [3] were 99.6%, 98.5% and 98%, respectively. The IC50 in [4] was determined as 1.81 nM; in [5], 12.7 nM; in assay [6], 10.5 nM; in [26] it was 2810 nM; in assay [27] it was 26.7 nM; in assay [28], 383 nM. The compound also came in with an IC50 in [29] of 4820 nM. Also, the Activity in assay [7] is given as 45.33%; in assay [8] it was 62.99%; in [9], 98.97%; in [10], 32.54%; in assay [11] it was 29.83%; in [12], 0.34%. The Activity in assay [13] is 19.83%; in assay [14], 6.24%; in [15], 0.17%; in assay [16], 1.34%; in assay [17] it was 0.34%; in [18] it was 0.09%. Also, the Activity stood at 1.89% in [19]; 1.94% in assay [20]; 2.14% in assay [21]; 0.52% in assay [22]; 0.73% in [23]; 0.59% in assay [24]. The result in [25] was Active.

Regarding `CC(C)(C)n1cc(-c2ccnc(NCCNS(=O)(=O)c3ccc(F)cc3)c2)c(-c2cccc(O)c2)n1`, the inhibition in assay [1] turned out to be 87.2%.

Turning to `COc1cccc(-c2nn(C(C)(C)C)cc2-c2ccnc(NCCCNS(=O)(=O)c3ccccc3)c2)c1`, the inhibition in assay [1] was found to be 38.8%.

Consider `COc1cccc(-c2nn(C(C)(C)C)cc2-c2ccnc(NCCCNS(=O)(=O)c3cccc(F)c3)c2)c1`, for which the inhibition in assay [1] came to 29.9%.

For `COc1cccc(-c2nn(C(C)(C)C)cc2-c2ccnc(NCCNS(=O)(=O)c3ccccc3)c2)c1`, the inhibition in assay [1] came out at 3.74%.

`CC(C)(C)n1cc(-c2ccnc(NCCCNS(=O)(=O)c3ccccc3)c2)c(-c2cccc(O)c2)n1`: the inhibition in assay [1] worked out at 99.4%; in assay [2], 98.5%; in assay [3], 99.1%. Also, the IC50 was determined as 3.75 nM in assay [4], 23.1 nM in [5] and 20.2 nM in assay [6].

Compound `CCNC1CCNC1` (centres undefined) displayed an IC50 in assay [29] of 12.8 nM.

As for `CC(C)(C)n1cc(-c2ccnc(NCCNS(=O)(=O)c3cccc(F)c3)c2)c(-c2cccc(O)c2)n1`, the inhibition in assay [1] turned out to be 86.4%.

Take `CC(C)(C)n1cc(-c2ccnc(NCCNS(=O)(=O)c3ccccc3)c2)c(-c2cccc(O)c2)n1`: the inhibition in assay [1] came to 81.8%.

As to `CC(C)(C)n1cc(-c2ccnc(NCCNS(=O)(=O)c3ccc(C(F)(F)F)cc3)c2)c(-c2cccc(O)c2)n1`, the inhibition in assay [1] is 66.6%.

As for `COc1cccc(-c2nn(C(C)(C)C)cc2-c2ccnc(NCCCNS(=O)(=O)c3cccc4ccccc34)c2)c1`, the inhibition in [1] is 21.3%.

As to `CC(C)(C)n1cc(-c2ccnc(NCCNS(=O)(=O)c3cccc4ccccc34)c2)c(-c2cccc(O)c2)n1`, the inhibition in assay [1] was found to be 63.7%.

In the case of `COc1ccc(S(=O)(=O)NCCCNc2cc(-c3cn(C(C)(C)C)nc3-c3cccc(OC)c3)ccn2)cc1`, the inhibition in assay [1] turned out to be 49.2%.

For `CC(C)(C)n1cc(-c2ccnc(NCCCNS(=O)(=O)c3cccc(F)c3)c2)c(-c2cccc(O)c2)n1`, the inhibition in assay [1] was 98.4%; in assay [2] it was 98.5%; in assay [3], 98.2%. Moreover, the IC50 in assay [4] was found to be 6.81 nM.

For `CC(C)(C)n1cc(-c2ccnc(NCCNS(=O)(=O)c3ccc(Cl)cc3)c2)c(-c2cccc(O)c2)n1`, the inhibition in assay [1] came out at 78.7%.

Regarding `COc1cccc(-c2nn(C(C)(C)C)cc2-c2ccnc(NCCNS(=O)(=O)c3ccc(Cl)cc3)c2)c1`, the inhibition in [1] was determined as 0.99%.

Turning to `COc1cccc(-c2nn(C(C)(C)C)cc2-c2ccnc(NCCCNS(=O)(=O)c3ccc(F)cc3)c2)c1`, the inhibition in assay [1] came out at 41.4%.

On to `COc1cccc(-c2nn(C(C)(C)C)cc2-c2ccnc(NCCNS(=O)(=O)c3ccc(C)cc3)c2)c1`, for which, in assay [1], the inhibition stood at 4.68%.

On to `COc1cccc(-c2nn(C(C)(C)C)cc2-c2ccnc(NCCCNS(=O)(=O)c3ccc(C)cc3)c2)c1`, for which, in [1], the inhibition was determined as 37.8%.

Regarding `COc1cccc(-c2nn(C(C)(C)C)cc2-c2ccnc(NCCCNS(=O)(=O)c3ccc(Br)cc3)c2)c1`, the inhibition came to 73.7% in assay [1] and 57.7% in assay [2].

On to `COc1cccc(-c2nn(C(C)(C)C)cc2-c2ccnc(NCCNS(=O)(=O)c3ccc(F)cc3)c2)c1`, for which the inhibition in assay [1] was found to be 3.91%.

For `COc1cccc(-c2nn(C(C)(C)C)cc2-c2ccnc(NCCCNS(=O)(=O)c3ccc(Cl)cc3)c2)c1`, the inhibition was found to be 79.6% in assay [1] and 68.2% in assay [2].

Consider `COc1ccc(S(=O)(=O)NCCNc2cc(-c3cn(C(C)(C)C)nc3-c3cccc(O)c3)ccn2)cc1`, for which the inhibition in assay [1] worked out at 90.6%; in [2] it was 94.4%; in assay [3], 96.2%. Further, the IC50 in assay [4] worked out at 55.8 nM.

Turning to `Cc1ccc(S(=O)(=O)NCCCNc2cc(-c3cn(C(C)(C)C)nc3-c3cccc(O)c3)ccn2)cc1`, the inhibition in assay [1] amounted to 97%; in [2], 98.8%; in assay [3], 98.2%. Also, the IC50 in [4] is 15.1 nM.

On to `COc1cccc(-c2nn(C(C)(C)C)cc2-c2ccnc(NCCNS(=O)(=O)c3ccc(Br)cc3)c2)c1`, for which, in assay [1], the inhibition is -6.18%.

Consider `COc1cccc(-c2nn(C(C)(C)C)cc2-c2ccnc(NCCCNS(=O)(=O)c3ccc(C(F)(F)F)cc3)c2)c1`, for which the inhibition in assay [1] came to 13.2%.
